Measured values from patent US20160339022A1, “TREATMENT OF NEUROBLASTOMA WITH HISTONE DEACETYLASE INHIBITORS” (Acetylon Pharmaceuticals Inc., priority 2015, published 2016).

What was measured:
[1] = target: HDAC2 (Homo sapiens, UniProt Q92769); assay: HDAC2 activity in live cells; assay type: cell-based; settings: FIG. 1C
[2] = tested on: neuroblastoma cells; assay: Histone acetylation in neuroblastoma cells by western blot; assay type: cell-based; settings: western blot at 24 hours
[3] = tested on: SK-N-BE(2) cells; assay: Cell viability (Promega CellTiter Glo assay); assay type: cell-based
Description: (§1) Cells were cultured for 48 hours at the indicated concentration of drug, and then cell viability was measured by Promega CellTiter Glo assay and caspase activity was measured by Promega Caspase3/7 Glo assay. […] Anti-tumor activity is evident at 3 μM of treatment.

[4] = tested on: SK-N-BE(2) cells; assay: Caspase activity (Promega Caspase3/7 Glo assay); assay type: cell-based
Description: as §1

[5] = tested on: neuroblastoma cells; assay: Neuroblastoma proliferation, manual cell counts over 7 days; assay type: cell-based; settings: 1 μM and 3 μM, counted at days 3, 5 and 7
Description: Cells were cultured over a 7 day period and manually counted at days 3, 5, and 7.

[6] = tested on: neuroblastoma cells; assay: Cell cycle analysis (Click-iT EdU and FxCycle PI/RNase staining); assay type: cell-based; settings: 7 days, with ATRA
Description: Cells were cultured for 7 days with the indicated treatments and then stained with the Invitrogen Click-iT EdU kit and the Invitrogen FxCycle […] kits to assess frequency of cells in each stage of the cell cycle. […] The effect is enhanced by Compound B in a dose dependent manner.
In combination with ATRA, the effect on p21 is enhanced at concentrations that induce gene expression changes consistent with differentiation. At 7 days of treatment, combination effects are observed on the cell cycle, with a decreasing frequency of s-phase cells and an increasing sub-G1 population (FIG. 6B). […] EDU is increased in cells in s-phase while PI intensity indicates relative levels of DNA. Using these metrics, we illustrate the frequency of cells in the indicated states of the cell cycle.

[7] = tested on: neuroblastoma cells; assay: Morphology changes / dendrite outgrowth by inverted microscope; assay type: cell-based; settings: 3, 5 and 7 days
Description: Cells were cultured for 3, 5, and 7 days with the indicated treatments. Images were captured on an inverted microscope.

[8] = tested on: NF-M; assay: NF-M staining by fluorescent microscopy; assay type: cell-based; settings: 7 days on glass slides
Description: Cells were cultured for 7 days with the indicated treatments on glass slides. Cells were fixed and stained with antibodies for NF-M and nucleus. Images were captured on a fluorescent microscope.

[9] = tested on: SK-N-BE(2) cells; assay: Microarray gene expression and gene set enrichment analysis; assay type: cell-based, Homo sapiens; settings: 3 μM Compound B, 1 μM ATRA or combination, microarray 48 hr, fold relative to the DMSO control group
Description: Gene expression from cells treated with ATRA single agent and combination of ATRA and HDAC1/2i were assessed at 2 hrs and 48 hrs of treatment (FIG. 12A). […] A function analysis of the data using the Ingenuity IPA platform was performed by Qiagen; overlap is observed in the top hits between treatment groups.
Genes that statistically increase over 2-fold relative to the DMSO control were mapped on a Venn diagram (FIG. 12B).
Neuroblastoma cell line SK-N-BE(2) cells were treated with 3 μM Compound B, 1 μM ATRA, or a combination of both at 37° C. over 2 hours (FIG. 12A) or 48 hours (FIG. 12B) and compared to the solvent (DMSO) control.

[10] = tested on: Wnt signaling pathway; assay: Levels of Wnt-related signaling molecules; assay type: cell-based; settings: SK-N-BE2 cells; 3 days in culture
Description: The levels of Wnt-related signaling molecules were assessed following treatment (SK-N-BE2 cells; 3 days in culture) with DMSO (control), Compound B alone, ATRA alone, and Compound B in combination with ATRA. b-catenin, the key signaling molecule in the Wnt pathway, is decreased by the Compound B and ATRA combination. Activated p-LRP is decreased after Compound B single agent treatment. Disheveled (Dvl) 2 & 3 is reduced by Compound B and ATRA combination treatment. Naked2 is increased by Compound B as a single agent and in combination with ATRA. Axin1 is decreased by Compound B as a single agent and in combination with ATRA.

[11] = tested on: AKT and c-RAF; assay: Levels of AKT and c-RAF; assay type: cell-based; settings: SK-N-BE2 cells; 3 days in culture
Description: The levels of AKT and c-RAF were assessed following treatment (SK-N-BE2 cells; 3 days in culture) with DMSO (control), Compound B alone, ATRA alone, and Compound B in combination with ATRA. Activated AKT is increased by ATRA and reduced in the combination setting with Compound B. Compound B as a single agent, and in combination with ATRA, decreases cRAF phosphorylation at residue Ser259.

[12] = tested on: SK-N-BE2 cells; assay: Levels of proteins related to cell-cycle progression; assay type: cell-based; settings: 3 days in culture
Description: The levels of proteins related to cell-cycle progression were assessed following treatment (SK-N-BE2 cells; 3 days in culture) with DMSO (control), Compound B alone, ATRA alone, and Compound B in combination with ATRA. p21 is increased by ATRA and enhanced by Compound B. Cyclin D1 is decreased in the combination setting relative to ATRA as a single agent. CDK2 and CDK4 are decreased in the combination setting with Compound B and ATRA.

[13] = tested on: neuroblastoma cells; settings: MTS assay, FIGS. 27 and 28
Description: Viable cells were measured in an MTS assay and the combination index (CI) was calculated using the Chou-Talaay method.

HDAC2, sequence (Q92769 whole entry): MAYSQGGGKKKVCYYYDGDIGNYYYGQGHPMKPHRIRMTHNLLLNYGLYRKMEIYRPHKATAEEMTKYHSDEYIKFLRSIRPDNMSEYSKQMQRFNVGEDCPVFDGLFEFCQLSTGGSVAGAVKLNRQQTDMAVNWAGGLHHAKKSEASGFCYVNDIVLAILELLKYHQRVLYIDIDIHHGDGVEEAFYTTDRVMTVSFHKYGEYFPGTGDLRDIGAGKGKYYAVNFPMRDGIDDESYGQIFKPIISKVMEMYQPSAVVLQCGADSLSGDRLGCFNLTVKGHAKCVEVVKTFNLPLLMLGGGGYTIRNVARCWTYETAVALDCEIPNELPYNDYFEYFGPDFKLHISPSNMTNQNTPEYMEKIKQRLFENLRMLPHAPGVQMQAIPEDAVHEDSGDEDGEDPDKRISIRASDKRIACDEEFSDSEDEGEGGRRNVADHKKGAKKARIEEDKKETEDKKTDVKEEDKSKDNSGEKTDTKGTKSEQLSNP

Question: For `Nc1ccc(-c2cccs2)cc1NC(=O)c1ccc2c(c1)cc(C1CC1)n2CCN1CCOCC1` [Compound B, N-(2-amino-5-(thiophen-2-yl)phenyl)-2-cyclopropyl-1-(2-morpholinoethyl)-1H-indole-5-carboxamide], which “potency of inhibition of HDAC2 activity in live cells” value [1] is on record?
Answer: 0.5 to 3 µM

Question: What about the histone acetylation [2] of the same molecule?
Answer: induces histone acetylation

Question: And the cell death ([3]; 1 μM, 48 hours)?
Answer: Minimal

Question: And the anti-tumor activity ([3]; 3 μM, 48 hours)?
Answer: evident

Question: And the “concentrations causing tumor cell death” value ([3]; FIG. 2A)?
Answer: ≥ 2 µM

Question: What about the “caspase 3/7 induction” value ([4]; 1 μM, 48 hours) of the same molecule?
Answer: Minimal

Question: What about the “concentrations at which Caspase 3/7 activity is increased” value ([4]; FIG. 2B, independent of ATRA) of the same molecule?
Answer: ≥ 2 µM

Question: And the “proliferation, single agent” value [5]?
Answer: can suppress proliferation similar to ATRA

Question: What about the “effect on ATRA-mediated s-phase reduction and sub-G1 increase” value [6] of the same molecule?
Answer: enhanced

Question: And the “morphology / dendrite outgrowth” value [7]?
Answer: does not alter morphology

Question: And the NF-M staining [8]?
Answer: general increase in NF-M staining

Question: What about the “Gene Expression Change, ACSL3” value [9] of the same molecule?
Answer: 2.23

Question: And the “Gene Expression Change, ATP7A” value [9]?
Answer: 1.98

Question: And the “Gene Expression Change, CDKN1A” value [9]?
Answer: 1.93

Question: What about the “Gene Expression Change, CRABP2” value [9] of the same molecule?
Answer: 1.18

Question: What about the “Gene Expression Change, CTSH” value [9] of the same molecule?
Answer: 3.05

Question: And the “Gene Expression Change, CYP26A1” value [9]?
Answer: 0.99

Question: What about the “Gene Expression Change, CYP26B1” value [9] of the same molecule?
Answer: 1.87

Question: And the “Gene Expression Change, DHRS3” value [9]?
Answer: 1.03

Question: And the “Gene Expression Change, DUSP6” value [9]?
Answer: 3.33

Question: What about the “Gene Expression Change, ETS1” value [9] of the same molecule?
Answer: 3.00

Question: What about the “Gene Expression Change, HSPA5” value [9] of the same molecule?
Answer: 3.78

Question: What about the “Gene Expression Change, IER3” value [9] of the same molecule?
Answer: 2.33

Question: What about the “Gene Expression Change, NFKBIZ” value [9] of the same molecule?
Answer: 1.95

Question: And the “Gene Expression Change, PCDH18” value [9]?
Answer: 2.53

Question: And the “Gene Expression Change, PTGER2” value [9]?
Answer: 1.41

Question: What about the “Gene Expression Change, RARB” value [9] of the same molecule?
Answer: 1.14

Question: What about the “Gene Expression Change, RET” value [9] of the same molecule?
Answer: 1.34

Question: What about the Axin1 level [10] of the same molecule?
Answer: decreased

Question: What about the Naked2 level [10] of the same molecule?
Answer: increased

Question: What about the “activated p-LRP level” value [10] of the same molecule?
Answer: decreased

Question: What about the “cRAF phosphorylation at residue Ser259” value [11] of the same molecule?
Answer: decreases

Question: And the p21 level [12]?
Answer: enhanced

Question: What about the “cytotoxic effect on neuroblastoma cells as a single agent” value [13] of the same molecule?
Answer: has a cytotoxic effect
